From ChEMBL document CHEMBL1201862, “PubChem BioAssay data set” (2004)
Calls of active or inactive are those of the source.

Tests used:
Caspase-3 = target: T1, Caspase-3 (Homo sapiens, UniProt P42574); format: functional;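 note: Dose-response selectivity test against caspase-3 for candidate inhibitors of sentrin-specific proteases (SENPs)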
T1 sequence (P42574 whole entry): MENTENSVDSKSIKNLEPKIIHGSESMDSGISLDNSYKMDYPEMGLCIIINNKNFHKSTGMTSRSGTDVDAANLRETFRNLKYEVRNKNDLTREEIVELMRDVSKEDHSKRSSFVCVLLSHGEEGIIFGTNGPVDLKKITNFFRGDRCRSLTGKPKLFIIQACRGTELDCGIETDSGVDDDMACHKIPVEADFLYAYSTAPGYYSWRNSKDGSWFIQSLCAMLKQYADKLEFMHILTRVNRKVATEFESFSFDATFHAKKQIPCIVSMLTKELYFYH

[1] = target: T2, Sentrin-specific protease 6 (Homo sapiens, UniProt Q9GZR1); format: functional;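 note: Luminescence-based dose-response confirmatory assay of SENP6 inhibition, following up an ultra-high-throughput screen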
T2 sequence (Q9GZR1 whole entry): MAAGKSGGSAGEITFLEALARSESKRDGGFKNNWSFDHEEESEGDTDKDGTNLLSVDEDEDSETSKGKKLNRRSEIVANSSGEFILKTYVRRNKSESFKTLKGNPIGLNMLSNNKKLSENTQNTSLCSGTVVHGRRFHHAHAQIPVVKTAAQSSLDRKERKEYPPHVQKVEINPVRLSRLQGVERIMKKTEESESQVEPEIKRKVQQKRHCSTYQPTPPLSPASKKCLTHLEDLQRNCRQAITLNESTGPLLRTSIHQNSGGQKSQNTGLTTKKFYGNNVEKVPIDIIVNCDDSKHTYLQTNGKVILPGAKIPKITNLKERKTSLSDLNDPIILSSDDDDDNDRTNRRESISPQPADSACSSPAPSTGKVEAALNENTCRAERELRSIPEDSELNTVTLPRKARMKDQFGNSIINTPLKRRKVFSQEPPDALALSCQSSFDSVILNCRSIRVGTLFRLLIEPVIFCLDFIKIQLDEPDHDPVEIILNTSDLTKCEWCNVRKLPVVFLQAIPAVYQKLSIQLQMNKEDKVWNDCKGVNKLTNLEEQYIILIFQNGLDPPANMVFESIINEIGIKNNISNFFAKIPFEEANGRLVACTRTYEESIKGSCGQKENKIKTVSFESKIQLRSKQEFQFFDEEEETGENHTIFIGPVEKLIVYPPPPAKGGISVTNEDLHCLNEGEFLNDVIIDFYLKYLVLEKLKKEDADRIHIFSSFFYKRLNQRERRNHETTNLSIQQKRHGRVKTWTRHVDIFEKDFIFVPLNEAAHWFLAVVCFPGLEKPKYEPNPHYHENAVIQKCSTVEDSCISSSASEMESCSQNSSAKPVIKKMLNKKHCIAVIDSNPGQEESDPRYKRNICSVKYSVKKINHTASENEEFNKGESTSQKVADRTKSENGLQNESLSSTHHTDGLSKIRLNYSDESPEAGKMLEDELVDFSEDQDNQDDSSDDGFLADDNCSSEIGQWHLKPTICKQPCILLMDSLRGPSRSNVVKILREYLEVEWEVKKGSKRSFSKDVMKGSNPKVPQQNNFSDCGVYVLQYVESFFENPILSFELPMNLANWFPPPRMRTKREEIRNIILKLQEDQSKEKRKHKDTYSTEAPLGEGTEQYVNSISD

[2] = target: T3, Sentrin-specific protease 8 (Homo sapiens, UniProt Q96LD8); format: functional;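 note: luminescence read-out of SENP8 inhibition, dose-response confirmation following an ultra-high-throughput screen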
T3 sequence (Q96LD8 whole entry): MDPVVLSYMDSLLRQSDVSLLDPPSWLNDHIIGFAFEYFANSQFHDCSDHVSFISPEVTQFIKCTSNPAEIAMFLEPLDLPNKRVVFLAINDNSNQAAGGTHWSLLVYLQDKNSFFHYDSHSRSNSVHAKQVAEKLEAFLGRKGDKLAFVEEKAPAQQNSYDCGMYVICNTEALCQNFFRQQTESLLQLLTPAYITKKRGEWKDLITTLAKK

[3] = target: T4, Sentrin-specific protease 7 (Homo sapiens, UniProt Q9BQF6); format: functional;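 note: Luminescence-based dose-response confirmation of ultra-high-throughput screening hits, measuring inhibition of SENP7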
T4 sequence (Q9BQF6 whole entry): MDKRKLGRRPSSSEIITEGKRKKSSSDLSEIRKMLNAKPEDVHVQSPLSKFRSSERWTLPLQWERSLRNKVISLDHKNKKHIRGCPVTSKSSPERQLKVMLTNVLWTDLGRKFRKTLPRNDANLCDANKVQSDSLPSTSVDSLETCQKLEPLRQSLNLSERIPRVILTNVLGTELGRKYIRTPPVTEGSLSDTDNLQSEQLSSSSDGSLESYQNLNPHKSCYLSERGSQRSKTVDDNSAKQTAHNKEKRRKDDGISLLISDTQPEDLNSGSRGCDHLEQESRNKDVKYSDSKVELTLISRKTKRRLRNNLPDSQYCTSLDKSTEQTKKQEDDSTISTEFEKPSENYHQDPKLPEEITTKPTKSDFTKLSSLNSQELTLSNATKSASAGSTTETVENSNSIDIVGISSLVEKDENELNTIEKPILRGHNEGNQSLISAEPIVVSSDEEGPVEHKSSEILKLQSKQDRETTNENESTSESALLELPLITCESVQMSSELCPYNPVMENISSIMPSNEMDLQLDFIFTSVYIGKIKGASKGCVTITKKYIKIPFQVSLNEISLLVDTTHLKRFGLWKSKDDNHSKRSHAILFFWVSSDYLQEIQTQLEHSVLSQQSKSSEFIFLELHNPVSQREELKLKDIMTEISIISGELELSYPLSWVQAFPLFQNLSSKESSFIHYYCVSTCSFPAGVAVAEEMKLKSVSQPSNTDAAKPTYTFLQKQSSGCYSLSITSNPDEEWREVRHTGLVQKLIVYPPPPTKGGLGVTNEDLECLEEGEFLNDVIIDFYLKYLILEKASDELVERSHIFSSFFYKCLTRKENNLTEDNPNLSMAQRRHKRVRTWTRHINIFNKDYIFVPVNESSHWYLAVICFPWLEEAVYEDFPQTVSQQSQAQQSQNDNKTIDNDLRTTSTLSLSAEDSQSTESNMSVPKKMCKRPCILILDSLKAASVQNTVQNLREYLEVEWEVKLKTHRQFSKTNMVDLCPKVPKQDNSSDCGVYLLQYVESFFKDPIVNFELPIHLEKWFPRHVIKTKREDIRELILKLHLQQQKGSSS

[4] = target: T5, Calpain-2 catalytic subunit (Sus scrofa, UniProt P43367); test: pig calpain II inhibitor potency, dose response, biochemical, fluorogenic peptide substrate (AID 1420); format: functional
T5 sequence (P43367 whole entry): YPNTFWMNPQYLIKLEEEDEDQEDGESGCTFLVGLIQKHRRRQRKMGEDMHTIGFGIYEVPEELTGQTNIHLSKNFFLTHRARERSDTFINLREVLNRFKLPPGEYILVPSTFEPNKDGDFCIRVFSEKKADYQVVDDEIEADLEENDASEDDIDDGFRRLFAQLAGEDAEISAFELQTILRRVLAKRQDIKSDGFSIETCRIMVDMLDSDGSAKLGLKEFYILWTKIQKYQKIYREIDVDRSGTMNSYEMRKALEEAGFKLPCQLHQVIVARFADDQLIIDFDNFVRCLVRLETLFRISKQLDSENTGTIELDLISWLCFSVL

Prothrombin = Prothrombin (Homo sapiens, UniProt P00734); test: Thrombin 1536 HTS Dose Response Confirmation. [Related pubchem assays: 1046 (Thrombin 1536 HTS; hits were confirmed in this assay)]; format: functional
Cytochrome P450 3A4 = Cytochrome P450 3A4 (Homo sapiens, UniProt P08684); conditions: Potency;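 note: confirmatory qHTS run detecting inhibitors and substrates of CYP3A4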
Cytochrome P450 3A4, sequence (P08684 whole entry): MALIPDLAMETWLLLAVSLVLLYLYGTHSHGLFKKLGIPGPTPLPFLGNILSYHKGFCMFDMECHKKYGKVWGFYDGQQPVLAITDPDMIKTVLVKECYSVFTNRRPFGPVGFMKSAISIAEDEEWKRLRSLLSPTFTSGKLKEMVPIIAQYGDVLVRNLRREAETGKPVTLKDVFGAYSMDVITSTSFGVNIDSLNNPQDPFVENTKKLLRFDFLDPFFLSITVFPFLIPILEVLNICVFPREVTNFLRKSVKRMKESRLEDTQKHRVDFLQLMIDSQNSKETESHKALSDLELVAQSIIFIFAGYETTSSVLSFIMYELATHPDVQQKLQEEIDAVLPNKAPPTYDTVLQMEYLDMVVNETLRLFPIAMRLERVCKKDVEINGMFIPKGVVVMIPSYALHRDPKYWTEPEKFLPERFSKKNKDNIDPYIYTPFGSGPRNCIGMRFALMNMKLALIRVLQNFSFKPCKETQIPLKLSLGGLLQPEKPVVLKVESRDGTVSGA

HeLa = test: HeLa cell cytotoxicity, dose response, cytotoxicity control for MITF activator project, CellTiter-Glo luminescence, cherry-pick samples (AID 540259); format: functional, cell-based; conditions: Homo sapiens
[5] = target: Voltage-dependent T-type calcium channel subunit alpha-1H (Homo sapiens, UniProt O95180); format: functional;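 note: channel activity triggered by adding a high calcium stimulation buffer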
Voltage-dependent T-type calcium channel subunit alpha-1H, sequence (O95180 whole entry): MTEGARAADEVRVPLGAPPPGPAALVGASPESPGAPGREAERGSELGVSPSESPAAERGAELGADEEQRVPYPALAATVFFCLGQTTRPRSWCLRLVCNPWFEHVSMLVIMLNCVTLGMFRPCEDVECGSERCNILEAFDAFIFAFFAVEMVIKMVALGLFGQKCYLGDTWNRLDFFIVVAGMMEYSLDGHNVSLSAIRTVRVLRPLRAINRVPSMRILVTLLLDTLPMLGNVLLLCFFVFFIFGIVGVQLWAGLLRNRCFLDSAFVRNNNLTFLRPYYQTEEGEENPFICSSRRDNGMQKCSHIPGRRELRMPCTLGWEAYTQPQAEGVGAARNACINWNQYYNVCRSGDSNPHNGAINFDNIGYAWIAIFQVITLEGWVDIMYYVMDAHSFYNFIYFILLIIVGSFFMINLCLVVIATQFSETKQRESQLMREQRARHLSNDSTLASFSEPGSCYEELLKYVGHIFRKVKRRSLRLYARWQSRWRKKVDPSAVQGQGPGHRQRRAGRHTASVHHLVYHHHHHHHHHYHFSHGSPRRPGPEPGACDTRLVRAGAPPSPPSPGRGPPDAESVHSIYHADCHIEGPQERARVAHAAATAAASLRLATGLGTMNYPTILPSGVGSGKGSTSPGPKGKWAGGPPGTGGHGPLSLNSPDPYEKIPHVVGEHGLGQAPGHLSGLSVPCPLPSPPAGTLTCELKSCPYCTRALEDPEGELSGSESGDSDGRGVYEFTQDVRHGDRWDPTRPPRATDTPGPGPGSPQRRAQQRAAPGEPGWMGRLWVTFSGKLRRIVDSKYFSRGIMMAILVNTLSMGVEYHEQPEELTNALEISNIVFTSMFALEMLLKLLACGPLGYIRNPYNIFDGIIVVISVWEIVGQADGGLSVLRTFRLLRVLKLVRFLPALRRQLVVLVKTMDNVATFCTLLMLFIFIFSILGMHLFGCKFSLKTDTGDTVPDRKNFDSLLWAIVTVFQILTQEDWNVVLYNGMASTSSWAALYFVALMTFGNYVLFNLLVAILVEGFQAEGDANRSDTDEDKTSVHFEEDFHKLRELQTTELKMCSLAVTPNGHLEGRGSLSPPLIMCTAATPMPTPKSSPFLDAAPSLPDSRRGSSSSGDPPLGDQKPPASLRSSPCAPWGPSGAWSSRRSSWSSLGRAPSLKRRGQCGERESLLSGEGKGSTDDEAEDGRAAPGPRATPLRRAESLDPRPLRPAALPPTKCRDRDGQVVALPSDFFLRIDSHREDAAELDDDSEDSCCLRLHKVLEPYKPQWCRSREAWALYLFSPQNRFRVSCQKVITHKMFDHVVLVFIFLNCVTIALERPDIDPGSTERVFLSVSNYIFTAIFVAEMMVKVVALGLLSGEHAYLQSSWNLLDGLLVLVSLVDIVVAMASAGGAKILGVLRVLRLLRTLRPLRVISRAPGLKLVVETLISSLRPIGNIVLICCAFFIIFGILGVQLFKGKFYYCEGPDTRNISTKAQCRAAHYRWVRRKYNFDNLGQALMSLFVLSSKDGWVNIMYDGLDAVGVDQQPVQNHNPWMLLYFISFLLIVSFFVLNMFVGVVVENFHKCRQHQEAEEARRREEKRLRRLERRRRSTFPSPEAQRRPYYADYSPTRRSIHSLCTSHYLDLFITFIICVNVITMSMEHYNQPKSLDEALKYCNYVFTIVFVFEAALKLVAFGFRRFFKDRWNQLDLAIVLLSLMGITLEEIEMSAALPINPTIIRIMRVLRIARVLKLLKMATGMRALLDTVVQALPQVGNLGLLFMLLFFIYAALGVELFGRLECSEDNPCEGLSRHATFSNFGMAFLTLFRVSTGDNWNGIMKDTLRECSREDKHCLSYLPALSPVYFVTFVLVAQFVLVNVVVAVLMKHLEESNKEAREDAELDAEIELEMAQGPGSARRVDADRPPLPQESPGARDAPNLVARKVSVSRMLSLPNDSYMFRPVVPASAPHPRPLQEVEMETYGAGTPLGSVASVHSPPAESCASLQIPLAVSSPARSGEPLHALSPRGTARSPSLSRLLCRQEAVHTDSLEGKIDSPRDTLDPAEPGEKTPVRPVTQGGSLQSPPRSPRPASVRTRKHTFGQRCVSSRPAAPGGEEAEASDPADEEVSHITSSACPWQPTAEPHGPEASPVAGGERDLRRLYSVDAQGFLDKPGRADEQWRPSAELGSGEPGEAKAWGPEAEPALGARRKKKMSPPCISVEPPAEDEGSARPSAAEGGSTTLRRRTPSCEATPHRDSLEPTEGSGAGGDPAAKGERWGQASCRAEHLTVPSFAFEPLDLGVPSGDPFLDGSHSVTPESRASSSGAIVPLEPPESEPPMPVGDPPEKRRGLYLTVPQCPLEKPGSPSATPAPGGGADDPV

Protein skinhead-1 = target: T6, Protein skinhead-1 (Caenorhabditis elegans, UniProt P34707); format: functional
T6 sequence (P34707 whole entry): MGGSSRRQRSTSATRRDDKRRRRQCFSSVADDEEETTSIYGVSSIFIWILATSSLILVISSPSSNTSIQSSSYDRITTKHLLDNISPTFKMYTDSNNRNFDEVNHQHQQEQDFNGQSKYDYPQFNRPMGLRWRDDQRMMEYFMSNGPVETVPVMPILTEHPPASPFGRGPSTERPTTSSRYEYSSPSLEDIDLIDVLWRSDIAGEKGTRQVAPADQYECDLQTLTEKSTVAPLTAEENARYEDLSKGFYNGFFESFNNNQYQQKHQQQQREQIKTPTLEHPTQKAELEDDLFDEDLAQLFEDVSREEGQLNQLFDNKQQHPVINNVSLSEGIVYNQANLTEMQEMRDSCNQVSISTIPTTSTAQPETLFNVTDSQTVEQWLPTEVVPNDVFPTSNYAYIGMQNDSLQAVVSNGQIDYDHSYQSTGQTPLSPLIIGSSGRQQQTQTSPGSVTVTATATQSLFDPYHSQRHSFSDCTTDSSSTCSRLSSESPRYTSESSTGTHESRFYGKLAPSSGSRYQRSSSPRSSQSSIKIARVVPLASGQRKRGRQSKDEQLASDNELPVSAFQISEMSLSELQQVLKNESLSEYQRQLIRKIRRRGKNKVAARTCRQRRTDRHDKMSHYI

[6] = target: T7, Mannose-6-phosphate isomerase (Homo sapiens, UniProt P34949); test: PMI enzyme inhibitors, confirmation, biochemical, fluorescence intensity (AID 1535)
T7 sequence (P34949 whole entry): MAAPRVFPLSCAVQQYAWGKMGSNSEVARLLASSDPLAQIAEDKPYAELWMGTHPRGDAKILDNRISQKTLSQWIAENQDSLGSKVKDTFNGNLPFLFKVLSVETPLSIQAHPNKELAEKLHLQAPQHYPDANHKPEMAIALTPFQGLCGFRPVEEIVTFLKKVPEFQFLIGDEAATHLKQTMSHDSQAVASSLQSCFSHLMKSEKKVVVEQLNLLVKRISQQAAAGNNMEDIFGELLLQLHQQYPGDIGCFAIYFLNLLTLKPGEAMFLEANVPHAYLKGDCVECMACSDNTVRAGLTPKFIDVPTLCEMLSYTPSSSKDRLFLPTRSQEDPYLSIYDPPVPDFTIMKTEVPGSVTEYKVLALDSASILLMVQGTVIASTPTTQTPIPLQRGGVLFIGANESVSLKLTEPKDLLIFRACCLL

H9c2 = test: cells; format: functional, cell-based; conditions: Rattus norvegicus, H9c2, Myocardium;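 note: confirmatory concentration-response retest of ultra-high-throughput screening hits for modulation of myocardial damage; cell death induced by hydrogen peroxide oxidative stress; compound pretreatment for 60 min then peroxide exposure for 2 h; potency is for protecting the cells against peroxide damage rather than for killing them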
cells = format: functional
[7] = microbe, parasite or virus in culture; format: functional; conditions: Mycobacterium tuberculosis
[8] = THP-1 cell cytotoxicity, dose response, cytotoxicity control for non-replicating M. tuberculosis project (AID 489025); format: functional
[9] = Vero E6 cell cytotoxicity, dose response, cytotoxicity control for non-replicating M. tuberculosis project, secondary assay (AID 492998); format: functional, VeroE6; conditions: Vero C1008
[10] = P. falciparum Dd2 growth inhibitors, dose response, SYBR Green, cherry-picked samples (AID 1159567); format: functional, cell-based
[11] = P. falciparum ATP4 D1247Y mutant growth inhibitors, dose response, NITD609-resistant line, SYBR Green, dry powder (AID 1159571); format: functional, cell-based;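 note: parasites synchronized at ring stage by sorbitol before testing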
[12] = P. falciparum 3D7-ScDHODH growth inhibitors, dose response, SYBR Green, dry powder samples (AID 1159570); format: functional, cell-based;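 note: parasite growth measured after 72 hours of compound exposure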
[13] = P. falciparum Dd2 growth inhibitors, dose response, SYBR Green, dry powder samples (AID 1159566); format: functional, cell-based;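 note: potency for growth inhibition with lower SYBR green DNA signal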
[14] = HepG2 cell cytotoxicity, dose response, cytotoxicity control, cherry-picked samples (AID 1159577); format: functional, cell-based
[15] = HepG2 cell cytotoxicity, dose response, cytotoxicity control, plate reader, dry powder samples (AID 1159569); format: functional, cell-based;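 note: inhibitor potency with signal falling toward the positive control level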

O=C(Nc1ccc2c(c1)CCC2)c1cccc(S(=O)(=O)Nc2ccccc2Cl)c1
IC50 (Caspase-3): 70.3 µM (active) | IC50 [1]: 47.3 µM (active) | IC50 [2]: 92.9 µM (active) | IC50 [3]: 23.9 µM (active) | IC50 [4]: 6.7 µM (not active)

CCOC(=O)Cn1c(=O)oc2cc(S(=O)(=O)NCCc3ccc(C)cc3)ccc21
IC50 (Prothrombin): > 50 µM (not active)

COCCNC(=O)C1(CC(C)C)C=CCN1C(=O)OC (stereo unspecified)
AC50 (Cytochrome P450 3A4): 0.1 µM (inconclusive)

CC1(C)CCCC2(C)C3C(O)CC2(C)C(O)C31 (stereo unspecified)
AC50 (Cytochrome P450 3A4): 31.6 µM (inconclusive)

CCOC(=O)C1=CC(OC(CC)CC)C(NC(C)=O)C(N)C1 (stereo unspecified)
AC50 (Cytochrome P450 3A4): 25.1 µM (inconclusive)

CCN(CC)C(=O)Cn1cc(C(=O)C(=O)NCCCn2ccnc2)c2ccccc21
IC50 (Prothrombin): > 50 µM (not active)

COc1ccc(Cl)cc1N(CC(=O)NC(C)(C)C)S(=O)(=O)c1ccc(C)c([N+](=O)[O-])c1
IC50 [4]: 12.7 µM (not active)

Nc1nc(-c2ccco2)nn1C(=O)c1cccnc1
IC50 (Prothrombin): 0.589 µM (active)

CC(C)(C)c1ccc(-c2cc(C(=O)NNC(=O)Nc3ccccc3)c3ccccc3n2)cc1
AC50 (HeLa): 69.9 µM (active)

Cc1c(C(=O)N2c3ccccc3Sc3ccccc32)cccc1[N+](=O)[O-]
IC50 [4]: 2.4 µM (not active)

COc1ccc(C(=O)N(Cc2nc(-c3ccc(C)cc3)no2)C2CCCCC2)cc1OC
EC50 [5]: 8.02 µM (active) | IC50 [4]: 10.8 µM (not active)

O=C(N/N=C\c1ccccc1O)c1ccccc1O
AC50 (Cytochrome P450 3A4): 6.31 µM (inconclusive)

NC(=NOC(=O)c1cccc(Cl)c1)c1cccnc1
IC50 (Protein skinhead-1): 86.4 µM (inactive) | IC50 (Prothrombin): > 50 µM (not active)

COc1ccccc1N1CCN(CC(O)COc2ccc3c(c2)OCO3)CC1 (stereo unspecified)
IC50 [4]: > 50 µM (not active)

CCCC(=O)n1nc(-c2ccc(C)cc2)nc1NCc1ccco1
IC50 (Prothrombin): 11.1 µM (active)

COc1ccc(/N=c2\ssnc2Cl)cn1
IC50 [6]: 29.8 µM (active)

Cc1cc(/N=c2\ssnc2Cl)n[nH]1
IC50 [6]: 5.94 µM (active)

COC(=O)c1ccc2[nH]c(C3(O)CCCCC3)c(C)c2c1
AC50 (HeLa): 44.3 µM (active)

O=C(N/N=C/c1cccc2cccnc12)[C@H]1C[C@@H]1c1ccccc1
IC50 (H9c2): 11.2 µM (active) | IC50 (cells): 33.1 µM (active) | CC50 [7]: > 40 µM (active) | CC50 [8]: 32.9 µM (active) | CC50 [9]: > 20 µM (active)

COc1ccc2c3c(n(C)c2c1)[C@@H](CO)N(C(=O)CN(C)C)CC31CCN(Cc2cccnc2)CC1
AC50 [10]: 2.9 µM (active) | AC50 [11]: 4.01 µM (active) | AC50 [12]: 2.3 µM (active) | AC50 [13]: 2.61 µM (active) | AC50 [14]: > 39 µM (inactive) | AC50 [15]: 64.4 µM (active)

Cc1ccc(O)c(/N=N\c2ccccc2)n1
AC50 (Cytochrome P450 3A4): 5.01 µM (inconclusive)
